In publication PMC9598469, “Analysis of Antioxidant Constituents from Ilex rotunda and Evaluation of Their Blood–Brain Barrier Permeability” (Antioxidants, 2022):
Like-named read-outs stand apart in the source and are kept apart here.

Legend:
[1] = DPPH method on ELISA (96-well microplate) for isolated compounds; assay type: biochemical; settings: compounds 2.5 to 40 μM, 30 min, 517 nm; read-out: EC50 Values (μM), DPPH radical
Description: The radical scavenging effect of 2,2-diphenyl-1-picrylhydrazyl (DPPH; Thermo Fisher Scientific, Ward Hill, MA, USA) was measured using our previous method. Briefly, 0.1 mL of each sample solution (dissolved in EtOH) was mixed with 0.1 mL of 0.2 mM DPPH and allowed to stand at RT for 30 min under shade. The absorbance at 517 nm was measured using a microplate spectrophotometer (Epoch, Biotek Instruments, Inc., Winooski, VT, USA). Ascorbic acid (100 μg/mL) (Sigma–Aldrich, Co., St. Louis, MO, USA) was used as a positive control. The percentage of DPPH reduction between the treated sample and negative control well was calculated with the following formula: %EC = (A control − A sample) * 100/(A control), where A sample was the absorbance of the sample and A control was the absorbance of untreated sample. Results are indicated as EC50, which correspond to the sample concentration (μg/mL) required to inhibition by 50% of the initial DPPH radical scavenging activity under the given experimental conditions.
(§1) An amount of 100 μL of the I. rotunda extract (1.3 mg/mL) dissolved in methanol and 100 μL of the DPPH solution (1.2 mg/mL in methanol) were mixed and incubated for 30 min at 37 °C, protected from light. After that, the mixture was filtered through a 0.22 μm filter for HPLC analysis. The control sample was prepared by mixing 100 μL methanol with 100 μL of the extract. Both mixtures were analyzed using the same established analytical methods. The outflow was monitored at 254 and 326 nm wavelength. […] The ELISA assay was performed by following procedure. A 100 μL of DPPH solution (0.2 mM) was added to 100 μL of the sample on a 96-well plate, mixed for 5 s, and reacted for 30 min under shade. The absorbance was measured at 517 nm using a microplate spectrophotometer (Epoch, Biotek Instruments, Inc., Winooski, VT, USA). […] Ascorbic acid (100 μg/mL) (Sigma–Aldrich, Co., St. Louis, MO, USA) was used as the positive control.

[2] = Parallel artificial membrane permeability assay for the blood–brain barrier (PAMPA-BBB); assay type: in vitro ADME; settings: for Papp at 4 h, 1 mM: single compounds at concentration of 10 mM (stock), read-out: BBB Permeability log Pe (converted); for Cross BBB Potential: single compounds at 10 mM, classification based on Könczöl et al.
Description: The PAMPA-BBB experiment was carried out according to the study by Könczöl et al.. A slightly modified version of the PAMPA-BBB was used to assess effective permeability (Pe, cm/s) of compounds of I. rotunda. Briefly, 20 μL of stock solution of I. rotunda extract (10 mg/mL in MeOH) or test compound (10 mM in MeOH) was mixed with 180 μL of phosphate buffered saline (PBS, pH 7.4, 10 mM) to obtain the starting donor solution. Subsequently, the filter membrane of the donor (top) plate (96-well polycarbonate-based filter plate, Multiscreen-IP, MAIPTR10, pore size 0.45 μm, Milipore) was coated with 5 μL of porcine polar brain lipid extract (PBLE) solution (16.0 mg PBLE + 8.0 mg cholesterol dissolved in 600.0 μL n-dodecane). Then, 150.0 μL of the filtrate was placed on the membrane. The bottom (acceptor) plate (96-well microtiter plate, Multiscreen®, MATRNPS50, Milipore) was filled with 300.0 μL buffer solution (PBS, pH 7.4, 10 mM). The donor plate was carefully located on the acceptor plate to form a “sandwich”. It was incubated at 37 °C for 4 h without direct right exposure. After incubation, PAMPA plates were separated. Concentrations of identified compounds of I. rotunda in the starting donor solution and in acceptor and donor wells were determined in triplicate based on chromatographic peak areas derived from the same established analytical methods. […] Pe=−ln1−CA(t)/Cequilibrium /A×1/VD1/VA×t where Pe is permeability in cm s^−1. A = effective filter area = f × 0.3 cm^2; VD = donor well volume = 150 μL; VA = acceptor well volume = 300 μL; t = incubation time (s) = 14,400; CA(t) = compound concentration in the acceptor well at time t; and CD(t) = compound concentration in the donor well at time t. Cequilibrium is calculated as follows: Cequilibrium=CD(t)×VD+CA(t)×VA/VD+VA

[3] = HPLC-DPPH screening: peak area reduction in I. rotunda twig extract; assay type: biochemical; settings: between DPPH treated and untreated samples in the I. rotunda extract, untreated = 100%
Description: as §1

[4] = parameters: method as in PMID 23565574; settings: cited from earlier work
[5] = I. rotunda extract test, t = 14,400 s

Structure (SMILES): O=C1O[C@H]([C@@H](O)CO)C(O)=C1O [Ascorbic acid, reference compound]
- EC50 [1]: 22.6 ± 0.77 µM

Structure (SMILES): O=c1ccc2ccccc2o1 [coumarin, reference compound]
- Papp at 4 h, 1 mM ([2]; PAMPA, pH 7.4, 37 °C, 4 h): 28.8 ×10⁻⁶ cm/s
- Cross BBB Potential [2]: ++ (log Pe > −5.0)

Structure (SMILES): O=C(/C=C/c1ccc(O)c(O)c1)O[C@@H]1[C@H](O)C[C@@](O)(C(=O)O)C[C@H]1OC(=O)/C=C/c1ccc(O)c(O)c1 [Compound 7, 4,5-Dicaffeoylquinic acid]
- Reduction of the Peak Area (%) [3]: 83.67%
- Reduction of the Peak Area (%) ([3]; listed as 4,5-dicaffeoylquinic acid (7)): 83.67 ± 0.19%
- EC50 [1]: 13.8 ± 0.24 µM
- Concentration of acceptor solution CA(t) [2, 5]: 6.62 µg/mL
- Concentration of donor solution CD(t) [2, 5]: 287.86 µg/mL
- BBB permeability (in words) ([2]; PAMPA-BBB, extract and 10 mM tests): moderate BBB permeability
- Papp at 4 h, 1 mg/mL extract ([2]; PAMPA, compound within I. rotunda extract (10 mg/mL stock), pH 7.4, 37 °C, 4 h, read-out: BBB permeability log Pe (converted)): 1.58 ×10⁻⁶ cm/s
- Papp at 4 h, 1 mM ([2]; PAMPA, pH 7.4, 37 °C, 4 h): 1.41 ×10⁻⁶ cm/s
- Cross BBB Potential [2]: + (log Pe > −6.0)

Structure (SMILES): C[C@@H]1O[C@@H](OC[C@H]2O[C@@H](Oc3c(-c4ccc(O)c(O)c4)oc4cc(O)cc(O)c4c3=O)[C@H](O)[C@@H](O)[C@@H]2O)[C@H](O)[C@H](O)[C@H]1O [Compound 3, Rutin]
- Reduction of the Peak Area (%) [3]: 21.45 ± 0.90%
- Cross BBB Potential [2]: - (not detected in acceptor or log Pe < −6.0)
- BBB permeability (in words) [4]: poor permeability

Structure (SMILES): CC(=CCOC1OC(CO)C(O)C(O)C1O)COC(=O)C=Cc1ccc(O)c(O)c1 (stereo not drawn) [Compound 4, Rotundarpenoside B]
- Reduction of the Peak Area (%) [3]: 18.99 ± 0.90%
- Cross BBB Potential [2]: - (not detected in acceptor or log Pe < −6.0)

Structure (SMILES): COc1cc(/C=C/CO)cc(OC)c1O[C@@H]1O[C@H](CO)[C@@H](O)[C@H](O)[C@H]1O [Compound 1, Syringin]
- Reduction of the Peak Area (%) [3]: 6.98 ± 0.44%
- Cross BBB Potential [2]: - (not detected in acceptor or log Pe < −6.0)

Structure (SMILES): O=C(/C=C/c1ccc(O)c(O)c1)O[C@@H]1C[C@](O)(C(=O)O)C[C@@H](O)[C@H]1O [Compound 2, Chlorogenic acid]
- Cross BBB Potential [2]: - (not detected in acceptor or log Pe < −6.0)
- BBB permeability (in words) [4]: poor permeability

Structure (SMILES): O=C(C=Cc1ccc(O)c(O)c1)OC1CC(O)(C(=O)O)CC(O)C1OC(=O)C=Cc1ccc(O)c(O)c1 (stereo not drawn) [Compound 5, 3,4-Dicaffeoylquinic acid]
- Reduction of the Peak Area (%) [3]: 45.24 ± 0.67%
- Cross BBB Potential [2]: - (not detected in acceptor or log Pe < −6.0)

Structure (SMILES): O=C(/C=C/c1ccc(O)c(O)c1)O[C@@H]1C[C@](O)(C(=O)O)C[C@@H](OC(=O)/C=C/c2ccc(O)c(O)c2)[C@H]1O [Compound 6, 3,5-Dicaffeoylquinic acid]
- Reduction of the Peak Area (%) [3]: 58.88%
- Reduction of the Peak Area (%) ([3]; listed as 3,5-dicaffeoylquinic acid (6)): 58.88 ± 0.44%
- EC50 [1]: 10.88 ± 0.04 µM
- Cross BBB Potential [2]: - (not detected in acceptor or log Pe < −6.0)

Structure (SMILES): O=C(/C=C/c1ccc(O)c(O)c1)O[C@@H]1C[C@](O)(C(=O)O)C[C@@H](OC(=O)/C=C/c2ccc(O)c(O)c2)[C@H]1OC(=O)/C=C/c1ccc(O)c(O)c1 [Compound 8, 3,4,5-Tricaffeoylquinic acid]
- Reduction of the Peak Area (%) [3]: 67.25%
- Reduction of the Peak Area (%) ([3]; listed as 3,4,5-tricaffeoylquinic acid (8)): 67.25 ± 1.00%
- EC50 [1]: 10.9 ± 0.14 µM
- Cross BBB Potential [2]: - (not detected in acceptor or log Pe < −6.0)

Structure (SMILES): O=C(O)/C=C/c1ccc(O)c(O)c1 [caffeic acid, reference compound]
- Papp at 4 h, 1 mM ([2]; PAMPA, pH 7.4, 37 °C, 4 h): 0.000832 ×10⁻⁶ cm/s
- Cross BBB Potential [2]: - (not detected in acceptor or log Pe < −6.0)
